Reference: patent US9521845B2, “Beta-lactones as antibacterial agents” (LUDWIG-MAXIMILIANS-UNIVERSITÄT-MÜNCHEN, priority 2008, dated 2016)

What was measured:
[1] = test system: haemolysis abilities of Staphylococcus aureus; experiment: Blood agar plate-based haemolysis assay; type: cell-based
Method: FIG. 3: Blood agar plate-based assay illustrating that beta-lactones have an effect on the haemolysis abilities of Staphylococcus aureus. 2.5 μL of S. aureus LB dilution (OD600=0.13 corresponding to approx. 1×10^8 cfu/ml) and 2.5 μL DMSO/lactone in DMSO were applied on Whatman Cards placed on 5% sheep blood agar plates (Heipha Diagnostika, Eppelheim, Germany) and incubated at 37° C. over night. A) Direct comparison of beta-lactones as shown in FIG. 2 at a total amount of 250 nmol applied on Whatman Cards. B) Dose down with beta-lactone compounds D3, E2 and G2 at applied concentrations of 100 mM, 50 mM, 25 mM, 12.5 mM, 6.25 mM and 0 mM (corresponding to total amounts of 250 nmol, 125 nmol, 62.5 nmol, 31.3 nmol, 15.6 nmol and 0 nmol, respectively).
2.5 μl, of S. aureus LB dilution (OD600 0.13 corresponding to approx. 1×10^8 cfu/ml) and 2.5 μL DMSO/beta-lactone in DMSO were applied on Whatman Cards placed on 5% sheep blood agar plates (Heipha Diagnostika, Eppelheim, Germany) and incubated at 37° C. over night. FIG. 3A directly compares the β-lactones at a total amount of 250 nmol applied on Whatman Cards. […] For D3 almost no haemolysis is observed down to a total amount of 125 nmol lactone. FIG. 5 illustrates the haemolytic activity of beta-lactone compounds D3, E2 and G2 plotted against the total amount of the respective beta-lactone, whereby a haemolysis zone size of 1.5 mm was set as 100% haemolytic activity. The data shown in FIG. 5 has been corroborated by further experimental testing.
Haemolysis was tested on blood agar plates (5% sheep blood; Heipha Diagnostika, Eppelheim, Germany). Sterile circles of Whatman cards (No. Y) with 5 mm diameter were placed on agar plates and inoculated with 2.5 μL of the corresponding beta-lactone/DMSO and 2.5 μL stationary phase culture of S. aureus diluted to […]. The plates were incubated over night at 37° C. and the diameters of the zones around the bacterial colonies were precisely measured using a vernier caliper.

[2] = test system: proteolysis abilities of Staphylococcus aureus; experiment: Milk agar plate-based proteolysis assay; type: cell-based
Method: FIG. 6: Milk agar plate-based assay illustrating that beta-lactones have an effect on the proteolysis abilities of Staphylococcus aureus. 2.5 μL of S. aureus LB dilution (OD600=0.13 corresponding to approx. 1×10^8 cfu/ml) and 2.5 μL DMSO/beta-lactone in DMSO were applied on Whatman Cards placed on 1% skim milk LB agar plates and incubated at 37° C. over night. A) Direct comparison of beta-lactones as shown in FIG. 2 at a total amount of 250 nmol applied on Whatman Cards. B) Dose down with beta-lactones D3, E2 and G2 at applied concentrations of 100 mM, 50 mM, 25 mM, 12.5 mM, 6.25 mM and 0 mM (corresponding to total amounts of 250 nmol, 125 nmol, 62.5 nmol, 31.3 nmol, 15.6 nmol and 0 nmol, respectively). C) Proteolysis zone size plotted against the total amount of the respective beta-lactone.
2.5 μL of S. aureus LB dilution (OD600=0.13 corresponding to approx. 1×10^8 cfu/ml) and 2.5 μL DMSO/beta-lactone in DMSO were applied on Whatman Cards placed on 1% skim milk LB agar plates and incubated at 37° C. over night. FIG. 6A directly compares the β-lactones at a total amount of 250 nmol applied on Whatman Cards. […] For D3 and E2 almost no proteolysis is observed down to a total amount of 125 nmol of the respective beta-lactone. FIG. 6C illustrates that the proteolysis zone size plotted against the total amount of beta-lactone visualizes the strong effects particularly of D3 and E2.

[3] = molecular target: T1, Aldehyde dehydrogenase B (ADB) (Escherichia coli, UniProt P37685); experiment: ABPP labeling of E. coli cytosol; type: binding; details: 100 nM probe concentration, no other off targets
T1 construct: endogenous in cells; host or cells: Escherichia coli K12 lysate, cytosol fraction
T1 sequence (P37685 whole entry): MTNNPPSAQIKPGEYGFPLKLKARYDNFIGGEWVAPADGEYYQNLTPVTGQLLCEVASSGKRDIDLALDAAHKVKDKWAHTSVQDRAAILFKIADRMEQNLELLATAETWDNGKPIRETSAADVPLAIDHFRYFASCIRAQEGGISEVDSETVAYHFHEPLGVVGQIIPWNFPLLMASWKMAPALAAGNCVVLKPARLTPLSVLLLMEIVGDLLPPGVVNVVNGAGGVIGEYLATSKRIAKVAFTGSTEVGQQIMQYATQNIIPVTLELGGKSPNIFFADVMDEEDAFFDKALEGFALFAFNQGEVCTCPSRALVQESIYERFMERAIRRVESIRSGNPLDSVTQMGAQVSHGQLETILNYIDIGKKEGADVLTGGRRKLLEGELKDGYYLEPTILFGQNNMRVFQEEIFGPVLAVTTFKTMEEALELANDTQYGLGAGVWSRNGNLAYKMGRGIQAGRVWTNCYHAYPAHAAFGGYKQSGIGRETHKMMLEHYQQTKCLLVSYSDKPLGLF
Method: To estimate the strength of probe interactions with proteins in the proteome, we compared the reactivity profiles of selected beta-lactones across a broad concentration range from 10 μM to 5 nM.
Proteome samples were adjusted to a final concentration of 1 mg protein/mL by dilution in PBS prior to probe labeling. Experiments for visualization by 1D SDS-PAGE were carried out in 43 μL total volume and those for affinity enrichment in 1892 μL total volume, such that once CC reagents were added, the total reaction volume was 50 μL and 2 mL, respectively. Reactions were initiated by addition of the probe and allowed to incubate for 60 min at room temperature. For heat controls the proteome was denatured with 1 μL of 43% SDS at 95° C. for 6 min and cooled to room temperature before the probe was applied. Following incubation, reporter tagged-azide reagents (13 μM rhodamine-azide for analytical or 20 μM rhodamine-biotin-azide for preparative scale) were added followed by 1 mM TCEP and 100 μM ligand. Samples were gently vortexed and the cycloaddition initiated by the addition of 1 mM CuSO4. The reactions were incubated at room temperature for 1 h (Speers, J. Amer. Chem. Soc. 125 (2003), 4686).

[4] = molecular target: T2, ClpP (Staphylococcus aureus, UniProt Q2G036); experiment: In vivo labelling of the proteome of S. aureus; type: cell-based
T2 construct: endogenous in cells
T2 sequence (Q2G036 1-195): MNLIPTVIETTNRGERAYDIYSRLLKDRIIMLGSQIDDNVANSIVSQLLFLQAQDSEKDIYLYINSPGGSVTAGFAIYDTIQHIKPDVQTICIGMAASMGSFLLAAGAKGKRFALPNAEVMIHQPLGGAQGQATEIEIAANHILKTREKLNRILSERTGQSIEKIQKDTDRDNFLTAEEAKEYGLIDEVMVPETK
Method: FIG. 16: In vivo labelling of the proteome of S. aureus with beta-lactones. Probes were applied at a certain concentration to approx. 2×10^9 cfu of stationary phase S. aureus in 100 μL PBS and incubated for 2 h. Excess probe (beta-lactone) was removed by washing the cells 3× with 1 mL PBS each. Then the cells were lysed by sonication. ClpP has been identified by mass spectrometry from preparative SDS gels after workup and tryptic digestion. B) In vivo dose down of beta-lactones D3, E2 and G2 with S. aureus indicates strong labeling by beta-lactone D3. C) Increase of selectivity at 8.0 μM concentration.
This example relates to the in vivo labelling of the proteome of S. aureus with β-lactones. The beta-lactones were applied at a certain concentration to approx. 2×10^9 cfu of stationary phase S. aureus in 100 μL PBS and incubated for 2 h. Excess beta-lactone was removed by washing the cells 3× with 1 mL PBS each. Then the cells were lysed by sonication. […] ClpP has been identified by mass spectrometry from preparative SDS gels after workup and tryptic digestion.

C#CCCCC1OC(=O)C1CCCCCCCC=C (stereo not drawn) [D3, trans-3-(8-nonen-1-yl)-4-(4-pentyn-1-yl)oxetan-2-one]
potency ranking in haemolysis dose down (E2, G2, D3) ([1]; FIG. 5 dose down): most active | total amount down to which almost no haemolysis is observed ([1]; dose down 250-15.6 nmol): 125 nmol | haemolytic activity of S. aureus ([1]; total amount of 250 nmol applied on Whatman Cards, 5% sheep blood agar, 37° C. over night): strongly reduce | total amount down to which almost no proteolysis is observed ([2]; dose down 250-15.6 nmol): 125 nmol | proteolytic activity of S. aureus ([2]; total amount of 250 nmol applied on Whatman Cards, 1% skim milk LB agar, 37° C. over night): strongly reduce | ADB labeling preference [3]: strong preference | ClpP labelling ([4]; 8.0 μM concentration): still labelled | off-targets (selectivity) ([4]; 8.0 μM concentration): almost no off-targets are visible | ClpP labelling in in vivo dose down ([4]; stationary phase S. aureus, 2 h, dose down of D3, E2, G2): strong labelling
